One experiment addresses T1, hAMY3 receptor (Homo sapiens, UniProt O60896+P30988).
T1 sequence (P30988 25-474): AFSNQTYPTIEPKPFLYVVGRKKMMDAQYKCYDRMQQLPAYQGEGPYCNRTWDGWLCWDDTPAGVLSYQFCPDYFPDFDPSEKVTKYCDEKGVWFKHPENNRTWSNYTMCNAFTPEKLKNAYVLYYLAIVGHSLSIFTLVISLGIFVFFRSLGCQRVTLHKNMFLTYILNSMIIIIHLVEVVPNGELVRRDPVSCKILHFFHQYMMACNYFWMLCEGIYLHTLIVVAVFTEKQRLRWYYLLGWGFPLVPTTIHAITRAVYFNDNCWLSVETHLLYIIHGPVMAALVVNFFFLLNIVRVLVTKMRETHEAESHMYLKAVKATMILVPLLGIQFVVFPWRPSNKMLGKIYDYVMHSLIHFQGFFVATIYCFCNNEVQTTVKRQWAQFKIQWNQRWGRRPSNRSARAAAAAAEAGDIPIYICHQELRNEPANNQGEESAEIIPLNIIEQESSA
T1 sequence (O60896 24-148 partner): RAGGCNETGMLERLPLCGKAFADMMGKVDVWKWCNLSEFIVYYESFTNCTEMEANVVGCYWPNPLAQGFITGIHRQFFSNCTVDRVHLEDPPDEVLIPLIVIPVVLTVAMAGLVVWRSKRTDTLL
The experiment is described as follows: cAMP assay for in vitro receptor activation, hAMY3-R. The experiment is classed as cell-based. The conditions noted are these: cAMP assay, hAMY3 receptor; read-out: hAMY3R EC50. Put shortly: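 Receptor activation was measured as cAMP accumulation in a monoclonal cell line stably overexpressing hAMY3. Stimulation with graded doses lasted 30 min at room temperature in the presence of 0.5 mM IBMX, with human amylin as positive control.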
On the technique in general: Changes in cAMP serve as a functional read-out for many G protein-coupled receptors.

A further experiment has as its target hAM1 receptor (Homo sapiens, UniProt O60895+Q16602). The experiment is described as follows: cAMP assay for in vitro receptor activation, hAM1-R. The experiment is classed as cell-based. As to conditions: cAMP assay, hAM1 receptor; read-out: hAM1R EC50. Put shortly:
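Read-out is intracellular cAMP as a measure of receptor activation. Cells stably overexpressing hAM1 were subcloned to a monoclonal line, then thawed and seeded at 8000 cells/well in DPBS with 0.05% casein and the phosphodiesterase inhibitor IBMX at 0.5 mM.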

Numbered stars: 1 amine (or outer) side, 2 acyl side, 3 side chain; on linkers, the order of the positions; unused ones are H or OH. Bridge positions count the residues as written; N and C are the ends. Square brackets hold non-standard residues; d marks the D form. Peptide text beside a SMILES is read from it. * marks the point of attachment. C20 diacid = O=C(O)CCCCCCCCCCCCCCCCCCC(=O)*; γGlu = O=C(O)[C@H](CCC(=O)[*:2])N[*:1]; Hyp = O=C(O)[C@@H]1C[C@@H](O)CN1 A value given as a limit tells only on which side of the number the result lay.

5 molecules from patent US12139520B2 (priority 2020, dated 2024) can be followed below.

A word on the EC50: it is the concentration that produces a half-maximal response.

hAM1 receptor, sequence (Q16602 23-461): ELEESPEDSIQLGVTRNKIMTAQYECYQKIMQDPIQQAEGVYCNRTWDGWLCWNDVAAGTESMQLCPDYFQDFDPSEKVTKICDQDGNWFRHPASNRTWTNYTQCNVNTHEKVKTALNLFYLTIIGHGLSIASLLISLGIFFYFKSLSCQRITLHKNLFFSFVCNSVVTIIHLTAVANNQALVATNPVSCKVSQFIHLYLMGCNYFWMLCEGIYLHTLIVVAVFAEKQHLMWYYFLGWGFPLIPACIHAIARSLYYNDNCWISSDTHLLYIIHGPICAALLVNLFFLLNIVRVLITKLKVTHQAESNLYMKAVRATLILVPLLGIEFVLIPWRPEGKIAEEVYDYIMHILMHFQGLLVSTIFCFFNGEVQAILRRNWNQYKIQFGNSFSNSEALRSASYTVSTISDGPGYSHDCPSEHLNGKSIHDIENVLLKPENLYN
hAM1 receptor, sequence (O60895 43-175 partner): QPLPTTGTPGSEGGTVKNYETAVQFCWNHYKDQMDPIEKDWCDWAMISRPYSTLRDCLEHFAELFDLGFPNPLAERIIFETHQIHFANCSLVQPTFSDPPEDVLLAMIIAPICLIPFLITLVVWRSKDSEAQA

As for `CC[C@H](C)[C@H](NC(=O)[C@H](CCC(N)=O)NC(=O)[C@H](Cc1c[nH]cn1)NC(=O)[C@H](C)NC(=O)[C@H](CC(C)C)NC(=O)[C@H](CCCNC(=N)N)NC(=O)[C@H](CCC(N)=O)NC(=O)[C@@H](NC(=O)[C@@H](NC(=O)[C@@H]1CSSC[C@H](NC(=O)[C@H](CCCCN)NC(=O)CC[C@H](NC(=O)CCCCCCCCCCCCCCCCCCC(=O)O)C(=O)O)C(=O)N[C@@H](CC(N)=O)C(=O)N[C@@H]([C@@H](C)O)C(=O)N[C@@H](C)C(=O)N[C@@H]([C@@H](C)O)C(=O)N1)[C@@H](C)O)C(C)C)C(=O)N[C@@H](C)C(=O)N[C@@H](CCC(N)=O)C(=O)N[C@@H](Cc1ccccc1)C(=O)N[C@@H](Cc1ccc(O)cc1)C(=O)N[C@@H](CC(=O)O)C(=O)N[C@@H](CCCCN)C(=O)N[C@@H](CC(=O)O)C(=O)N[C@@H](CCCCN)C(=O)N[C@@H](CC(=O)O)C(=O)N[C@@H](CC(N)=O)C(=O)N[C@H](C(=O)N[C@@H](C)C(=O)N1CCC[C@H]1C(=O)N1CCC[C@H]1C(=O)N[C@H](C(=O)N[C@@H](CC(N)=O)C(=O)N[C@H](C(=O)NCC(=O)N[C@@H](CO)C(=O)N[C@@H](CC(N)=O)C(=O)NCC(=O)N1C[C@H](O)C[C@H]1C(N)=O)C(C)C)[C@@H](C)O)C(C)C` [compound 94] ({C20 diacid-γGlu}-KCNTATCTVQRLAHQIAQFYDKDKDNVAPPTNVGSNG[Hyp]-NH2; disulfide 2-7), the EC50 on hAMY3 receptor is 0.016 nM; on hAM1 receptor, > 5000 nM.
The corresponding values for `CC[C@H](C)[C@H](NC(=O)[C@H](CCC(N)=O)NC(=O)[C@H](Cc1c[nH]cn1)NC(=O)[C@H](C)NC(=O)[C@H](CC(C)C)NC(=O)[C@H](CCCNC(=N)N)NC(=O)[C@H](CCC(N)=O)NC(=O)[C@@H](NC(=O)[C@@H](NC(=O)[C@@H]1CSSC[C@H](NC(=O)[C@H](CCCCN)NC(=O)CC[C@H](NC(=O)CCCCCCCCCCCCCCCCCCC(=O)O)C(=O)O)C(=O)N[C@@H](CC(N)=O)C(=O)N[C@@H]([C@@H](C)O)C(=O)N[C@@H](C)C(=O)N[C@@H]([C@@H](C)O)C(=O)N1)[C@@H](C)O)C(C)C)C(=O)N[C@@H](C)C(=O)N[C@@H](CCC(N)=O)C(=O)N[C@@H](Cc1ccccc1)C(=O)N[C@H](C(=O)N[C@@H](CC(N)=O)C(=O)N[C@@H](CCCCN)C(=O)N[C@@H](CC(=O)O)C(=O)N[C@@H](CCCCN)C(=O)N[C@@H](CC(=O)O)C(=O)N[C@@H](CC(N)=O)C(=O)N[C@H](C(=O)N[C@@H](C)C(=O)N1CCC[C@H]1C(=O)N1CCC[C@H]1C(=O)N[C@H](C(=O)N[C@@H](CC(N)=O)C(=O)N[C@H](C(=O)NCC(=O)N[C@@H](CO)C(=O)N[C@@H](CC(N)=O)C(=O)NCC(=O)N1C[C@H](O)C[C@H]1C(N)=O)C(C)C)[C@@H](C)O)C(C)C)[C@@H](C)O` [compound 95] ({C20 diacid-γGlu}-KCNTATCTVQRLAHQIAQFTNKDKDNVAPPTNVGSNG[Hyp]-NH2; disulfide 2-7) are 0.016 nM and > 5000 nM.
For `CC[C@H](C)[C@H](NC(=O)[C@H](CCC(N)=O)NC(=O)[C@H](CCC(=O)O)NC(=O)[C@H](C)NC(=O)[C@H](CC(C)C)NC(=O)[C@H](CCCNC(=N)N)NC(=O)[C@H](CCC(N)=O)NC(=O)[C@@H](NC(=O)[C@@H](NC(=O)[C@@H]1CSSC[C@H](NC(=O)[C@H](CCCCN)NC(=O)CC[C@H](NC(=O)CCCCCCCCCCCCCCCCCCC(=O)O)C(=O)O)C(=O)N[C@@H](CC(N)=O)C(=O)N[C@@H]([C@@H](C)O)C(=O)N[C@@H](C)C(=O)N[C@@H]([C@@H](C)O)C(=O)N1)[C@@H](C)O)C(C)C)C(=O)N[C@@H](Cc1ccc(O)cc1)C(=O)N[C@@H](CCC(N)=O)C(=O)N[C@@H](Cc1ccccc1)C(=O)N[C@H](C(=O)N[C@@H](CC(=O)O)C(=O)N[C@@H](CCCCN)C(=O)N[C@@H](CC(=O)O)C(=O)N[C@@H](CCCCN)C(=O)N[C@@H](CC(=O)O)C(=O)N[C@@H](CC(N)=O)C(=O)N[C@H](C(=O)N[C@@H](C)C(=O)N1CCC[C@H]1C(=O)N1CCC[C@H]1C(=O)N[C@H](C(=O)N[C@@H](CC(N)=O)C(=O)N[C@H](C(=O)NCC(=O)N[C@@H](CO)C(=O)N[C@@H](CC(N)=O)C(=O)N[C@H](C(=O)N1C[C@H](O)C[C@H]1C(N)=O)[C@@H](C)O)C(C)C)[C@@H](C)O)C(C)C)[C@@H](C)O` [compound 96] ({C20 diacid-γGlu}-KCNTATCTVQRLAEQIYQFTDKDKDNVAPPTNVGSNT[Hyp]-NH2; disulfide 2-7), the EC50 at hAMY3 receptor is 0.016 nM; at hAM1 receptor, > 5000 nM.
On the same counts, the results for `CC[C@H](C)[C@H](NC(=O)[C@H](CCC(N)=O)NC(=O)[C@H](CCC(=O)O)NC(=O)[C@H](C)NC(=O)[C@H](CC(C)C)NC(=O)[C@H](CCCNC(=N)N)NC(=O)[C@H](CCC(N)=O)NC(=O)[C@@H](NC(=O)[C@@H](NC(=O)[C@@H]1CSSC[C@H](NC(=O)[C@H](CCCCN)NC(=O)CC[C@H](NC(=O)CCCCCCCCCCCCCCCCCCC(=O)O)C(=O)O)C(=O)N[C@@H](C)C(=O)N[C@@H]([C@@H](C)O)C(=O)N[C@@H](C)C(=O)N[C@@H]([C@@H](C)O)C(=O)N1)[C@@H](C)O)C(C)C)C(=O)N[C@@H](Cc1ccc(O)cc1)C(=O)N[C@@H](CCC(N)=O)C(=O)N[C@@H](Cc1ccccc1)C(=O)N[C@H](C(=O)N[C@@H](CC(=O)O)C(=O)N[C@@H](CCCCN)C(=O)N[C@@H](CC(=O)O)C(=O)N[C@@H](CCCCN)C(=O)N[C@@H](CC(=O)O)C(=O)N[C@@H](CC(N)=O)C(=O)N[C@H](C(=O)N[C@@H](C)C(=O)N1CCC[C@H]1C(=O)N1CCC[C@H]1C(=O)N[C@H](C(=O)N[C@@H](CC(N)=O)C(=O)N[C@H](C(=O)NCC(=O)N[C@@H](CO)C(=O)N[C@@H](CC(N)=O)C(=O)NCC(=O)N1C[C@H](O)C[C@H]1C(N)=O)C(C)C)[C@@H](C)O)C(C)C)[C@@H](C)O` [compound 97] ({C20 diacid-γGlu}-KCATATCTVQRLAEQIYQFTDKDKDNVAPPTNVGSNG[Hyp]-NH2; disulfide 2-7) are 0.016 nM and > 5000 nM.
With `CC[C@H](C)[C@H](NC(=O)[C@H](CCC(N)=O)NC(=O)[C@H](CCC(=O)O)NC(=O)[C@H](C)NC(=O)[C@H](CC(C)C)NC(=O)[C@H](CCCNC(=N)N)NC(=O)[C@H](CCC(N)=O)NC(=O)[C@@H](NC(=O)[C@@H](NC(=O)[C@@H]1CSSC[C@H](NC(=O)[C@H](CCCCN)NC(=O)CC[C@H](NC(=O)CCCCCCCCCCCCCCCCCCC(=O)O)C(=O)O)C(=O)N[C@@H](CC(N)=O)C(=O)N[C@@H]([C@@H](C)O)C(=O)N[C@@H](C)C(=O)N[C@@H]([C@@H](C)O)C(=O)N1)[C@@H](C)O)C(C)C)C(=O)N[C@@H](Cc1ccc(O)cc1)C(=O)N[C@@H](CCC(N)=O)C(=O)N[C@@H](Cc1ccccc1)C(=O)N[C@H](C(=O)N[C@@H](CC(=O)O)C(=O)N[C@@H](CCCCN)C(=O)N[C@@H](CC(=O)O)C(=O)N[C@@H](CCCCN)C(=O)N[C@@H](CC(=O)O)C(=O)N[C@@H](CCC(N)=O)C(=O)N[C@H](C(=O)N[C@@H](C)C(=O)N1CCC[C@H]1C(=O)N1CCC[C@H]1C(=O)N[C@H](C(=O)N[C@@H](CC(N)=O)C(=O)N[C@H](C(=O)NCC(=O)N[C@@H](CO)C(=O)N[C@@H](CC(N)=O)C(=O)NCC(=O)N1C[C@H](O)C[C@H]1C(N)=O)C(C)C)[C@@H](C)O)C(C)C)[C@@H](C)O` [compound 100] ({C20 diacid-γGlu}-KCNTATCTVQRLAEQIYQFTDKDKDQVAPPTNVGSNG[Hyp]-NH2; disulfide 2-7), the EC50 at hAMY3 receptor is 0.017 nM; at hAM1 receptor, > 5000 nM.
